The term EC50 denotes the concentration needed to bring the measured effect to its halfway point. The Ki is the dissociation constant of the complex between target and ligand, obtained from inhibition or displacement. A word on the IC50: it is the concentration that inhibits the measured activity by half.

The test system of series [1] is Enterovirus A71. As to the kind of experiment: Reversible inhibition of Enterovirus 71 3C protease assessed as recovery of enzyme activity at 10 to 20 equivalent using peptide substrate pre-incubated for 1 hr followed by dilution prior to substrate addition using ultra-filtered sample relative to control. Set-up: scale not given: the % may be the effect or the level left.

The subject of series [2] is Enterovirus A71. In words: Antiviral activity against pseudotyped Enterovirus A71 infected in human muscular rhabdomyosarcoma cells treated prior to viral infection and measured after 24 hrs by luminescence method. The settings on record: Enterovirus A. Type of series: functional, organism-based.
In series [3] the test system is Enterovirus A71. In words: Binding affinity to Enterovirus 71 3C protease assessed as enzyme-compound covalent adduct formation via Cys147 residue after 1 hr by HPLC-ESI/MS analysis.
Series [4] can be described thus: Reversible inhibition of Enterovirus 71 3C protease assessed as overall inhibition constant using NMA-IEALFQGPPK(DNP)FR as substrate pre-incubated for 30 mins followed by substrate addition and measured over 30 mins by fluorescence method. Set-up: species or system Enterovirus A71.
Series [5] deals with Enterovirus A71. In words: Inhibition of Enterovirus 71 3C protease assessed as induction of rapid equilibrium for enzyme-inhibitor complex formation up to 1.5 uM using NMA-IEALFQGPPK(DNP)FR as substrate by fluorescence method.
In series [6] the test system is Enterovirus A71. As to the kind of experiment: Antiviral activity against Enterovirus A71 EV71/Shenzhen/120F1/09 infected in human muscular rhabdomyosarcoma cells assessed as reduction in virus-induced cell death incubated for 3 days by CCK-8 assay. The format is functional, organism-based. Conditions: Enterovirus A, EV71/Shenzhen/120F1/09, 72 h.
Series [7] in a line: Inhibition of Enterovirus 71 E2004104-TW-CDC protease 3C (1549 to 1731 residues) expressed in Escherichia coli BL21(DE3) cells using Dacyl-KRTATVQGPSLDFE-Edans as substrate by fluorescence method. Set-up: species or system Enterovirus A71.
Series [8] deals with RD. In words: Cytotoxicity against human RD cells at 100 uM after 24 hrs by WST-1 assay relative to control. The format is cell-based. For orientation: Tetrazolium dyes change colour on reduction, which living cells bring about.
The subject of series [9] is RD. In words: Cytotoxicity against human RD cells at 33 uM after 24 hrs by WST-1 assay. Type of series: cell-based.

Activity calls are given as the source filed them. The rule behind the calls is not given here.

On to `Cc1cc(C(=O)N[C@@H](Cc2ccc(F)cc2)C(=O)N[C@H](/C=C(\C#N)C(=O)OC(C)(C)C)C[C@@H]2CCCNC2=O)no1`, for which the Activity in [1] was in the range of 65 to 85%. In series [2], this compound showed an EC50 of 0.03 µM. In addition, the outcome in series [3] was inactive. For the same compound, the Ki in [4] was found to be 0.0067 µM. For the same compound, the inhibition result in series [5] is “Active”.

As to `CCOC(=O)/C=C/[C@H](C[C@@H]1CCNC1=O)NC(=O)[C@@H](CC(=O)[C@@H](NC(=O)c1cc(C)on1)C(C)C)Cc1ccc(F)cc1` [RUPINTRIVIR], the half-maximal effective concentration (EC50) in [6] worked out at 0.041 µM. The compound also came in with an IC50 in series [7] of 1.6 µM.

In the case of `Cc1cc(C(=O)N[C@@H](Cc2ccc(F)cc2)C(=O)N[C@H](/C=C(\C#N)c2ccc(C(F)(F)F)cc2)C[C@@H]2CCCNC2=O)no1`, the EC50 in series [2] was 1.4 µM. The Activity in series [8] is 100%; in [9], “Toxic”.

Source of the values: ChEMBL document CHEMBL4364253, “Application of Dually Activated Michael Acceptor to the Rational Design of Reversible Covalent Inhibitor for Enterovirus 71 3C Protease” (J Med Chem, 2019).
